Patent publication US20140066449A1, “DIPYRIDINIUM DERIVATIVES” (SABREPHARM LIMITED, priority 2011, published 2014)
Where two headings read alike, the source gives them in different places.

Experiments:
[1] = test system: A2780/cis [cisplatin ovarian resistant line]; assay: Combination with cisplatin, A2780/cis; format: cell-based
M 14 [melanoma] = assay: Combination with cisplatin, M14; format: cell-based
[2] = test system: H460 non-small cell lung adenocarcinoma; assay: MTT in vitro cytotoxicity, H460; format: cell-based; details: Homo sapiens, NCI-H460, 240 h
Procedure: (§1) All were stored in the dark at 4° C. An accurately weighed amount of each compound was dissolved in DMSO and Hank's Balanced Salt Solution (Sigma) according to Table 2 below:
(§2) Further dilutions were made in complete RPMI1640 cell culture medium (RPMI1640 cell culture medium supplemented with 10% foetal bovine serum, 1 mM L-glutamine, and 2 mM sodium pyruvate (all from Sigma)).
(§3) H460 non-small cell lung adenocarcinoma, HT-29 colon adenocarcinoma and MCF-7 breast adenocarcinoma (ECACC, Salisbury, Wiltshire) were used for analysis. Cells were cultured in complete RPMI1640 cell culture medium, and maintained as monolayer cultures at 37° C. in a humidified 5% CO2 environment.
(§4) Tumour cell growth inhibition was assessed using the MTT assay with a standard 96 hour plus an extended 10 day incubation. For the 96 hour assay 1×10^4 cells were inoculated into each well of a 96-well plate and incubated overnight at 37° C. in a humidified atmosphere containing 5% CO2 to give time to adhere to the wells and form a monolayer. For the 10 day incubation, 1×102 (H460 and HT-29) and 1×103 (MCF-7) cells were inoculated. The next day, culture medium was removed from each well and replaced with cell culture media for the untreated control, or media containing compound, and the plates then incubated for a further 96 hours or 10 days. […] After 96 hours or 10 days culture medium was removed and 200 μL of 0.5 mgmL-1 MTT solution (Sigma) in complete medium added to each well. Following a further 4 hours incubation, the solution was removed from each well and 150 μL of DMSO added to solubilise the formazan crystals resulting from MTT conversion. Absorbance values for the resulting solutions were read at 550 nm on a Multiskan Ex microplate reader (Thermo Fisher, Loughborough, UK) and cell survival calculated as the absorbance of treated cells divided by the control. Results are expressed in terms of IC50 values (i.e. concentration of compound required to kill 50% of cells), which were determined manually in Microsoft Excel from plots of concentration versus percentage cell survival, and all experiments were performed in triplicate.

[3] = Redox potential study, square wave voltammetry; format: physicochemical; details: 0.1 mol dm-3 LiNTf2, 20° C., first scan
Procedure: BioAnalytical Systems CV50W potentiostat (from BAS Inc., USA)
Square wave voltammetry (4 mV step, 25 mV pulse, 10 Hz SW frequency)
3 mm diameter glassy carbon working electrode (from BAS)
3 mm diameter glassy carbon counter electrode (from BAS)
Saturated calomel reference electrode (SCE, from Sycopel Scientific Ltd., UK)
0.1 mol dm-3 lithium bis(trifluoromethanesulphonyl)imide ((LiNTf2)CAS 90076-65-6, from 3M)
Voltammograms were recorded from 0.5 V to −1.2 V in deoxygenated solutions of the Compounds.

[4] = test system: HT-29 colon adenocarcinoma; assay: MTT in vitro cytotoxicity, HT-29; format: cell-based; details: Homo sapiens, HT-29, 240 h
Procedure: as §1, §2, §3, §4

[5] = test system: MCF-7 breast adenocarcinoma; assay: MTT in vitro cytotoxicity, MCF-7; format: cell-based, human; details: Homo sapiens, MCF7, 240 h
Procedure: as §1, §2, §3, §4

[6] = test system: human mitochondria isolated from HEK293 cells; assay: ROS production in isolated mitochondria (DCFDA); format: biochemical
Procedure: The ability of test compounds to impact ROS production in isolated mitochondria after 120 mins exposure was assessed.
Mitochondria were isolated from harvested human embryonic kidney (HEK293) cells (20×10^6) using a commercial kit (Thermo Scientific) before re-suspension in PBS to a final volume of 800 μL. […] Independent experiments (each assessing the impact of all four compounds along with a positive [AAPH; 5.0 mM] and vehicle control) were repeated three times.

A2780 [ovarian] = assay: Combination with cisplatin, A2780; format: cell-based
MCF7 [Breast] = assay: Combination with cisplatin, MCF-7; format: cell-based, human
rat = details: oral; cited from earlier work
dog = details: oral; cited from earlier work
[7] = compound 1 μM + cisplatin 10 μM
[8] = compound 3 μM + cisplatin 10 μM
[9] = compound 10 μM + cisplatin 10 μM
[10] = compound 10 μM + cisplatin 1 μM
[11] = compound 10 μM + cisplatin 3 μM

O=S(=O)([O-])C(F)(F)F.O=S(=O)([O-])C(F)(F)F.c1cc[n+]2c(c1)-c1cccc[n+]1CC2 [Compound A, 6,7-dihydrodipyrido[1,2-a:2′,1′-c]pyrazine-5,8-diium bistrifluoromethanesulfonate]
% cell survival [1, 7]: 51.4%
% cell survival ([1]; compound 1 μM + cisplatin 30 μM): 10%
% cell survival ([1]; compound 1 μM + cisplatin 100 μM): −1.6%
% cell survival ([1]; compound 1 μM, cisplatin 0 μM): 77.8%
% cell survival [1, 8]: 31.9%
% cell survival ([1]; compound 3 μM + cisplatin 30 μM): 10.2%
% cell survival ([1]; compound 3 μM + cisplatin 100 μM): 1.9%
% cell survival ([1]; compound 3 μM, cisplatin 0 μM): 48.7%
% cell survival [1, 9]: 16.6%
% cell survival ([1]; compound 10 μM + cisplatin 30 μM): 6%
% cell survival ([1]; compound 10 μM + cisplatin 100 μM): 1.8%
% cell survival ([1]; compound 10 μM, cisplatin 0 μM): 29.4%
% cell survival (M 14 [melanoma]; compound 1 μM + cisplatin 1 μM): 83.1%
% cell survival (M 14 [melanoma]; compound 1 μM + cisplatin 3 μM): 71.3%
% cell survival (M 14 [melanoma]; [7]): 57.9%
% cell survival (M 14 [melanoma]; compound 1 μM, cisplatin 0 μM): 87%
% cell survival (M 14 [melanoma]; compound 3 μM + cisplatin 1 μM): 75.8%
% cell survival (M 14 [melanoma]; compound 3 μM + cisplatin 3 μM): 68%
% cell survival (M 14 [melanoma]; [8]): 55.4%
% cell survival (M 14 [melanoma]; compound 3 μM, cisplatin 0 μM): 80%
% cell survival (M 14 [melanoma]; [10]): 49%
% cell survival (M 14 [melanoma]; [11]): 44.4%
% cell survival (M 14 [melanoma]; [9]): 36.4%
% cell survival (M 14 [melanoma]; compound 10 μM, cisplatin 0 μM): 56.5%
IC50 ([2]; read-out: IC50 Mean): 5.4 µM
IC50 ([2]; read-out: IC50 Run 1): 5.2 µM
IC50 ([2]; read-out: IC50 Run 2): 5.5 µM
IC50 ([2]; read-out: IC50 Run 3): 5.4 µM
Reduction potential 1 [3]: −0.444 V vs. SCE
Reduction potential 2 [3]: −0.944 V vs. SCE
IC50 ([4]; read-out: IC50 Mean): 1.5 µM
IC50 ([4]; read-out: IC50 Run 1): 1.8 µM
IC50 ([4]; read-out: IC50 Run 2): 0.9 µM
IC50 ([4]; read-out: IC50 Run 3): 1.7 µM
IC50 ([5]; read-out: IC50 Mean): 5 µM
IC50 ([5]; read-out: IC50 Run 1): 2.7 µM
IC50 ([5]; read-out: IC50 Run 2): 5.4 µM
IC50 ([5]; read-out: IC50 Run 3): 6.8 µM
ROS production relative to vehicle treatment [6]: barely above vehicle levels
rank order of efficacy (ROS production) [6]: F>G>B>A
% cell survival (A2780 [ovarian]; compound 1 μM + cisplatin 1 μM): 58%
% cell survival (A2780 [ovarian]; compound 1 μM + cisplatin 3 μM): 24.5%
% cell survival (A2780 [ovarian]; [7]): 5.2%
% cell survival (A2780 [ovarian]; compound 1 μM, cisplatin 0 μM): 90.5%
% cell survival (A2780 [ovarian]; compound 3 μM + cisplatin 1 μM): 54.4%
% cell survival (A2780 [ovarian]; compound 3 μM + cisplatin 3 μM): 22.3%
% cell survival (A2780 [ovarian]; [8]): 5.3%
% cell survival (A2780 [ovarian]; compound 3 μM, cisplatin 0 μM): 86.3%
% cell survival (A2780 [ovarian]; [10]): 40.6%
% cell survival (A2780 [ovarian]; [11]): 19%
% cell survival (A2780 [ovarian]; [9]): 5.2%
% cell survival (A2780 [ovarian]; compound 10 μM, cisplatin 0 μM): 66%
% cell survival (MCF7 [Breast]; compound 1 μM + cisplatin 0.1 μM): 96.4%
% cell survival (MCF7 [Breast]; compound 1 μM + cisplatin 0.3 μM): 69.4%
% cell survival (MCF7 [Breast]; compound 1 μM + cisplatin 1 μM): 62%
% cell survival (MCF7 [Breast]; compound 1 μM, cisplatin 0 μM): 109%
% cell survival (MCF7 [Breast]; compound 3 μM + cisplatin 0.1 μM): 80.9%
% cell survival (MCF7 [Breast]; compound 3 μM + cisplatin 0.3 μM): 64.8%
% cell survival (MCF7 [Breast]; compound 3 μM + cisplatin 1 μM): 66.2%
% cell survival (MCF7 [Breast]; compound 3 μM, cisplatin 0 μM): 95.1%
% cell survival (MCF7 [Breast]; compound 10 μM + cisplatin 0.1 μM): 52.8%
% cell survival (MCF7 [Breast]; compound 10 μM + cisplatin 0.3 μM): 39.6%
% cell survival (MCF7 [Breast]; [10]): 32.6%
% cell survival (MCF7 [Breast]; compound 10 μM, cisplatin 0 μM): 52.6%

COc1cccc2c1C(=O)c1c(O)c3c(c(O)c1C2=O)C[C@@](O)(C(=O)CO)C[C@@H]3O[C@H]1C[C@H](N)[C@H](O)[C@H](C)O1 [Doxorubicin]
LD50 rat (rat): 12.5 mg/kg
LD50 dog (dog): 2.0 mg/kg
